{"source": "paper PMC4167585", "about": "(Cell, 2014)", "key": {"[1]": {"molecular_target": "T1, human microsomal GST (MGST1) (Homo sapiens, UniProt P10620)", "T1 sequence (P10620 1-155)": "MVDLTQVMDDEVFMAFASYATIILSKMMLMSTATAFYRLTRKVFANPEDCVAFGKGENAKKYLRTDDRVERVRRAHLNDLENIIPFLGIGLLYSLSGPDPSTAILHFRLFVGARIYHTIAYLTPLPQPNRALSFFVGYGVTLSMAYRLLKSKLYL", "assay": "GST activity toward CDNB", "format": "biochemical", "conditions": "GSH co-substrate"}, "[2]": {"system": "C=CC1=C(C)C2=Cc3c(C=C)c(C)c4[n]3[Fe+][n]3c(c(C)c(CCC(=O)O)c3=CC3=NC(=C4)C(C)=C3CCC(=O)O)=CC1=N2", "assay": "purified protein", "conditions": "2 mM GSH, 100 nM enzyme, pH 6.5, 0.1% Triton X-100"}, "EXP1": {"molecular_target": "EXP1 (Plasmodium falciparum, UniProt Q8IIF0)", "assay": "inhibition of GSH-CDNB conjugation, Dixon plot", "format": "biochemical"}}, "data": [{"compound": "O=[N+]([O-])c1ccc(Cl)c([N+](=O)[O-])c1", "note": "[1-chloro-2,4-dinitrobenzene]", "values": [{"measurement": "GST activity toward CDNB", "setting": "[1]", "value": "comparable to that of the human microsomal GST (MGST1, Figure S3D-F)"}]}, {"compound": "EXP1 (Plasmodium falciparum 3D7)", "values": [{"measurement": "Km", "setting": "[2]", "value": 0.251, "unit": "µM"}, {"measurement": "kcat", "setting": "[2]", "value": 7.7, "unit": "s⁻¹"}]}, {"compound": "C=CC1=C(C)C2=Cc3c(C=C)c(C)c4[n]3[Fe+][n]3c(c(C)c(CCC(=O)O)c3=CC3=NC(=C4)C(C)=C3CCC(=O)O)=CC1=N2", "note": "[hematin]", "values": [{"measurement": "Ki", "setting": "EXP1", "value": 170, "unit": "nM"}]}]}
